Assay results: EP3928779A1 (Chugai Seiyaku Kabushiki Kaisha, priority 2014, dated 2016)

Test system: rat small-intestinal brush border membrane vesicles
Test: Inhibitory effect on 33PO4 uptake into rat small-intestinal brush border membrane vesicles (rapid filtration method)
Assay type: biochemical
Conditions: 33PO4 uptake into rat small-intestinal BBMVs; test compound 1 µM; reacted for 60 seconds
Method: Brush border membrane vesicles (BBMVs) were prepared using the upper region of the small intestine of each Wistar female rat (4-5 weeks old). […] The ^33PO4 transport activity of the small-intestinal BBMVs was determined by the rapid filtration method. […] Then, ice-cold buffer C (110 mM NaCl, 1 mM KH2PO4, and 10 mM HEPES (pH 7.5)) was added to each reaction mixture, which was immediately suctionfiltered through a Millipore filter. The filter was washed with buffer C, and each sample was then dissolved in a liquid scintillator. The amount of ^33PO4 uptake into BBMVs was measured using a liquid scintillation counter. […]

Molecule | Rate of uptake inhibition (%) (1 µM)
1-[(2,3-Difluorophenyl)methyl]-4a-ethyl-4-hydroxy-N-[5-methyl-2-(trifluoromethyl)furan-3-yl]-2-oxo-5,6,7,8-tetrahydropyrido[1,2-b]pyridazine-3-carboxamide [Example 19] | 41
1-[(3-Fluorophenyl)methyl]-4-hydroxy-4a-methyl-N-[5-methyl-2-(trifluoromethyl)furan-3-yl]-2-oxo-5,6,7,8-tetrahydropyrido[1,2-b]pyridazine-3-carboxamide [Example 18] | 12
Cc1cc(NC(=O)C2=C(O)[C@@H]3CCCN3N(Cc3cccc(F)c3)C2=O)c(C(F)(F)F)o1 [Example 1, (4aS)-1-[(3-Fluorophenyl)methyl]-4-hydroxy-N-[5-methyl-2-(trifluoromethyl)furan-3-yl]-2-oxo-4a,5,6,7-tetrahydropyrrolo[1,2-b]pyridazine-3-carboxamide] | 28
Cc1cc(NC(=O)C2=C(O)[C@H]3CCCN3N(Cc3cccc(F)c3)C2=O)c(C(F)(F)F)o1 [Example 2, (4aR)-1-[(3-Fluorophenyl)methyl]-4-hydroxy-N-[5-methyl-2-(trifluoromethyl)furan-3-yl]-2-oxo-4a,5,6,7-tetrahydropyrrolo[1,2-b]pyridazine-3-carboxamide] | 19
Cc1cc(NC(=O)C2=C(O)[C@@H]3CC(C)(C)CN3N(Cc3cccc(F)c3)C2=O)c(C(F)(F)F)o1 [Example 3] | 11
Cc1cc(NC(=O)C2=C(O)[C@@H]3CCC(C)(C)N3N(Cc3cccc(F)c3)C2=O)c(C(F)(F)F)o1 [Example 4, (4aS)-1-[(3-Fluorophenyl)methyl]-4-hydroxy-7,7-dimethyl-N-[5-methyl-2-(trifluoromethyl)furan-3-yl]-2-oxo-5.6-dihydro-4aH-pyrrolo[1,2-b]pyridazine-3-carboxamide] | 32
COCCN(C)CCOc1ccc(CN2C(=O)C(C(=O)Nc3ccc(C(F)(F)F)cc3-c3cc(C(F)(F)F)ncn3)=C(O)C3(CCC3)N2C)c(F)c1F [Example 13, 6-[[2,3-Difluoro-4-[2-[2-methoxyethyl(methyl)amino]ethoxy]phenyl]methyl]-9-hydroxy-5-methyl-7-oxo-N-[4-(trifluoromethyl)-2-[6-(trifluoromethyl)pyrimidin-4-yl]phenyl]-5,6-diazaspiro[3.5]non-8-ene-8-carboxamide] | 58
Cc1cc(NC(=O)C2=C(O)[C@H]3CCCCN3N(Cc3cccc(F)c3)C2=O)c(C(F)(F)F)o1 [Example 15, (4aR)-1-[(3-Fluorophenyl)methyl]-4-hydroxy-N-[5-methyl-2-(trifluoromethyl)furan-3-yl]-2-oxo-5,6,7,8-tetrahydro-4aH-pyrido[1,2-b]pyridazine-3-carboxamide] | 42
C[C@]12CCCN1N(Cc1cccc(F)c1F)C(=O)C(C(=O)Nc1ccc(C(F)(F)F)cc1-c1cc(C(F)(F)F)ncn1)=C2O [Example 21, (4aR)-1-[(2,3-Difluorophenyl)methyl]-4-hydroxy-4a-methyl-2-oxo-N-[4-(trifluoromethyl)-2-[6-(trifluoromethyl)pyrimidin-4-yl]phenyl]-6,7-dihydro-5H-pyrrolo[1,2-b]pyridazine-3-carboxamide] | 61
Cc1c(C#N)ncnc1-c1cc(C(F)(F)F)ccc1NC(=O)C1=C(O)[C@@]2(C)CCCN2N(Cc2ccc(OCCN3CCOCC3)c(F)c2F)C1=O [Example 22, (4aR)-N-[2-(6-Cyano-5-methylpyrimidin-4-yl)-4-(trifluoromethyl)phenyl]-1-[[2,3-ditluoro-4-(2-morpholin-4-ylethoxy)phenyl]methyl]-4-hydroxy-4a-methyl-2-oxo-6,7-dihydro-5H-pyrrolo[1,2-b]pyridazine-3-carboxamide] | 50
C[C@]12CCCN1N(Cc1cccc(F)c1F)C(=O)C(C(=O)Nc1ccc(C(F)(F)F)cc1-c1ncnc(C#N)c1Cl)=C2O [Example 23] | 84
Cc1c(C#N)ncnc1-c1cc(C(F)(F)F)ccc1NC(=O)C1=C(O)[C@@]2(C)CCCN2N(Cc2cccc(F)c2F)C1=O [Example 24] | 76
COc1c(C#N)ncnc1-c1cc(C(F)(F)F)ccc1NC(=O)C1=C(O)[C@@]2(C)CCCN2N(Cc2cccc(F)c2F)C1=O [Example 25] | 82
CCCCCN1C(=O)C(C(=O)Nc2ccc(C(F)(F)F)cc2-c2ccc(C(F)(F)F)nc2)=C(O)[C@@]2(C)CCCN12 [Example 26] | 72
C[C@]12CCCN1N(Cc1cccc([N+](=O)[O-])c1)C(=O)C(C(=O)Nc1ccc(Br)c(F)c1)=C2O [Example 27] | 76
C[C@]12CCCN1N(Cc1cccc(F)c1F)C(=O)C(C(=O)Nc1ccc(Br)c(F)c1)=C2O [Example 28] | 72
C[C@]12CCCN1N(Cc1cccc(F)c1F)C(=O)C(C(=O)Nc1cc(F)c(Br)c(F)c1)=C2O [Example 29] | 75
CC1(C)CC[C@]2(C)C(O)=C(C(=O)Nc3cc(C(F)(F)F)ccc3-c3ccc(C(F)(F)F)nc3)C(=O)N(Cc3cccc(F)c3F)N12 [Example 63] | 72
C[C@]12CCCN1N(Cc1cccc(F)c1F)C(=O)C(C(=O)Nc1ccc(Br)cc1-c1cc(C(F)(F)F)ncn1)=C2O [Example 64] | 77
COC(=O)c1cccc(-c2cc(C(F)(F)F)ccc2NC(=O)C2=C(O)[C@@]3(C)CCCN3N(Cc3cccc(F)c3F)C2=O)c1OC [Example 65] | 98
CCOc1cccc(-c2cc(C(F)(F)F)ccc2NC(=O)C2=C(O)[C@@]3(C)CCCN3N(Cc3cccc(F)c3F)C2=O)c1OC [Example 66] | 96
C[C@]12CCCN1N(Cc1cccc(F)c1F)C(=O)C(C(=O)Nc1ccc(C(F)(F)F)cc1-c1cnc(Cl)nc1)=C2O [Example 67] | 91

Molecule | Rate of uptake inhibition (%) (1 µM)
C[C@]12CCCN1N(Cc1cccc(F)c1F)C(=O)C(C(=O)Nc1ccc(C(F)(F)F)cc1-c1cnc(Cl)c(C#N)c1)=C2O [Example 68, (4aR)-N-[2-(6-Chloro-5-cyanopyridin-3-yl)-4-(trifluoromethyl)phenyl]-1-[(2,3-difluorophenyl)methyl]-4-hydroxy-4a-methyl-2-oxo-6,7-dihydro-5H-pyrrolo[1,2-b]pyridazine-3-carboxamide] | 84
Cc1c(Cl)ncnc1-c1cc(C(F)(F)F)ccc1NC(=O)C1=C(O)[C@@]2(C)CCCN2N(Cc2cccc(F)c2F)C1=O [Example 69] | 74
C[C@]12CCCN1N(Cc1cccc(F)c1F)C(=O)C(C(=O)Nc1ccc(C(F)(F)F)cc1-c1ncnc(Cl)c1Cl)=C2O [Example 70] | 79
CN(C)S(=O)(=O)c1ccc(-c2cc(C(F)(F)F)ccc2NC(=O)C2=C(O)[C@@]3(C)CCCN3N(Cc3cccc(F)c3F)C2=O)s1 [Example 71] | 97
COc1ncc(-c2cc(C(F)(F)F)ccc2NC(=O)C2=C(O)[C@@]3(C)CCCN3N(Cc3cccc(F)c3F)C2=O)c(OC)n1 [Example 72] | 92
C[C@]12CCCN1N(Cc1cccc(F)c1F)C(=O)C(C(=O)Nc1ccc(C(F)(F)F)cc1-c1cnc(Br)cn1)=C2O [Example 73] | 74
C[C@]12CCCN1N(Cc1cccc(F)c1F)C(=O)C(C(=O)Nc1ccc(C(F)(F)F)cc1-c1cnc(Cl)cn1)=C2O [Example 74] | 82
C[C@]12CCCN1N(Cc1cccc(F)c1F)C(=O)C(C(=O)Nc1ccc(Br)cc1F)=C2O [Example 75] | 74
C[C@]12CCCN1N(Cc1cccc(F)c1F)C(=O)C(C(=O)Nc1ccc(Cl)cc1F)=C2O [Example 76] | 77
C[C@]12CCCN1N(Cc1cccc(F)c1F)C(=O)C(C(=O)Nc1ccc(Br)cc1)=C2O [Example 77] | 80
C[C@]12CCCN1N(Cc1cccc(F)c1F)C(=O)C(C(=O)Nc1ccc(Br)cn1)=C2O [Example 78] | 71
C[C@]12CCCN1N(Cc1cccc(F)c1F)C(=O)C(C(=O)Nc1ccc(Cl)cn1)=C2O [Example 79] | 71
COc1cc(C)c(-c2cc(C(F)(F)F)ccc2NC(=O)C2=C(O)[C@@]3(C)CCCN3N(Cc3cccc(F)c3F)C2=O)cn1 [Example 80] | 75
COc1cncc(-c2cc(C(F)(F)F)ccc2NC(=O)C2=C(O)[C@@]3(C)CCCN3N(Cc3cccc(F)c3F)C2=O)c1 [Example 81] | 74
C[C@]12CCCN1N(Cc1cccc(F)c1F)C(=O)C(C(=O)Nc1ccc(C(F)(F)F)cc1-c1cncc(C#N)c1)=C2O [Example 82] | 100
C[C@]12CCCN1N(Cc1cccc(F)c1F)C(=O)C(C(=O)Nc1ccc(C(F)(F)F)cc1-c1cnc3ccccc3c1)=C2O [Example 83] | 90
C[C@]12CCCN1N(Cc1cccc(F)c1F)C(=O)C(C(=O)Nc1ccc(C(F)(F)F)cc1-c1cc(Cl)cnc1Cl)=C2O [Example 84] | 91
C[C@]12CCCN1N(Cc1cccc(F)c1F)C(=O)C(C(=O)Nc1ccc(C(F)(F)F)cc1-c1ccc(C(F)(F)F)nc1Br)=C2O [Example 85] | 71
C[C@]12CCCN1N(Cc1cccc(F)c1F)C(=O)C(C(=O)Nc1ccc(Cl)cc1-c1ccc(C(F)(F)F)nc1)=C2O [Example 86] | 83
CN(C)S(=O)(=O)c1ccc(-c2nc(C(F)(F)F)ccc2NC(=O)C2=C(O)[C@@]3(C)CCCN3N(Cc3cccc(F)c3F)C2=O)cc1 [Example 87] | 84
C[C@]12CCCN1N(Cc1cccc(F)c1F)C(=O)C(C(=O)Nc1ccc(C(F)(F)F)cc1)=C2O [Example 89] | 67
